Experimental data reported in patent US10633339B2, “Tricyclic sulfone compound as a ROR gamma modulator” (BRISTOL-MYERS SQUIBB COMPANY, priority 2018, dated 2020).

What was measured:
[1] = Glutathione conjugate formation in rat liver cytosol incubations; format: in vitro ADME
Method: (§1) Assay for Glutathione Conjugate formation in Rat or Human Cytosol Incubations Compound A and Compound 1 were incubated at a concentration of 10 μM with rat or human liver cytosol (3-5 mg/mL) (male Sprague-Dawley rat liver cytosol, lot BIM, n=100 purchased from Bioreclamation IVT, or mixed gender pool, lot 452115, n=150 purchased from Corning) in 1 mL of potassium phosphate buffer (50 mM, pH 8.5). The reactions (n=2, total volume=1000 μL) were initiated by the addition of glutathione (GSH) (5 mM) and incubated at 37° C. in a thermomixer. At 0 and 60 min, aliquots (100 μL) of the reaction mixtures were collected, and reactions were terminated by adding two volumes of acetonitrile. Proteins were then removed using a Millipore Sigma (Massachusetts, BA) Multiscreen Solvinert filter plate, by centrifugation (Eppendorf 5810 R, Hamburg, Germany) at 2000 rpm for 5 min. The filtrate was collected in a 96-well plate and was analyzed by high resolution Velos LTQ-Orbitrap (LC-UV/MS) system. UV absorbance was collected from 220-600 nm. […] The degrees of formation of GSH conjugates from the two compounds is shown below. Entries represent UV peak areas calculated relative to the parent compound at 260-280 nm. Data in parentheses represent the averages of the two experiments.

[2] = Glutathione conjugate formation in human liver cytosol incubations; format: in vitro ADME; details: 10 μM compound, 5 mM GSH, 37° C., 60 min; UV peak area relative to parent at 260-280 nm; n=2
Method: as §1

- GSH conjugate, Rat Cytosol UV Area (%), individual experiments ([1]; 10 μM compound, 5 mM GSH, 37° C., 60 min, UV peak area relative to parent at 260-280 nm, n=2): not detected
- GSH adduct formation (statement in words) ([1]; based on in vitro experiments (rat or human cytosol, not given)): did not form a GSH adduct
- GSH conjugate, Human Cytosol UV Area (%), individual experiments [2]: not detected
Structure (SMILES): C[C@H]1C[C@H](C(=O)O)CC[C@H]1C(=O)N1CC[C@@]2(S(=O)(=O)c3ccccc3)c3cc(F)c(C(F)(C(F)(F)F)C(F)(F)F)cc3CC[C@@H]12 [Compound 1, (1R,3S,4R)-4-((3aR,9bR)-8-fluoro-7-(perfluoropropan-2-yl)-9b-(phenylsulfonyl)-2,3,3a,4,5,9b-hexahydro-1H-benzo[e]indole-3-carbonyl)-3-methylcyclohexane-1-carboxylic acid]
